Measurements taken from US9434711B2 (Janssen Pharmaceutica, NV, priority 2007, dated 2016).

Target: canine TRPM8 (Canis lupus familiaris, UniProt Q1A7N1)
Experiment: In Vitro Canine TRPM8 Functional Assay (Ca2+ fluorescence, icilin activation)
Format: cell-based
Details: for IC50: HEK293 cells stably expressing canine TRPM8, icilin activation, eight-point dose-response, read-out: IC50; for inhibition at 0.2 µM / % Inh @ 0.2 (μM): compound at 0.2 μM, canine TRPM8, icilin activation; for inhibition at 0.2 µM: read-out: % Inh @ 0.2
Procedure, shortened: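 Eight-point dose-response curves, each point averaging quadruplicate wells, gave EC50 or IC50. Canine TRPM8-expressing HEK293 cells, dye-loaded (Calcium 3), were pre-exposed 5 min to compound, then challenged with icilin at roughly EC80; intracellular Ca2+ read by FLIPR or FDSS fluorescence.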

canine TRPM8, sequence (Q1A7N1 1-1104): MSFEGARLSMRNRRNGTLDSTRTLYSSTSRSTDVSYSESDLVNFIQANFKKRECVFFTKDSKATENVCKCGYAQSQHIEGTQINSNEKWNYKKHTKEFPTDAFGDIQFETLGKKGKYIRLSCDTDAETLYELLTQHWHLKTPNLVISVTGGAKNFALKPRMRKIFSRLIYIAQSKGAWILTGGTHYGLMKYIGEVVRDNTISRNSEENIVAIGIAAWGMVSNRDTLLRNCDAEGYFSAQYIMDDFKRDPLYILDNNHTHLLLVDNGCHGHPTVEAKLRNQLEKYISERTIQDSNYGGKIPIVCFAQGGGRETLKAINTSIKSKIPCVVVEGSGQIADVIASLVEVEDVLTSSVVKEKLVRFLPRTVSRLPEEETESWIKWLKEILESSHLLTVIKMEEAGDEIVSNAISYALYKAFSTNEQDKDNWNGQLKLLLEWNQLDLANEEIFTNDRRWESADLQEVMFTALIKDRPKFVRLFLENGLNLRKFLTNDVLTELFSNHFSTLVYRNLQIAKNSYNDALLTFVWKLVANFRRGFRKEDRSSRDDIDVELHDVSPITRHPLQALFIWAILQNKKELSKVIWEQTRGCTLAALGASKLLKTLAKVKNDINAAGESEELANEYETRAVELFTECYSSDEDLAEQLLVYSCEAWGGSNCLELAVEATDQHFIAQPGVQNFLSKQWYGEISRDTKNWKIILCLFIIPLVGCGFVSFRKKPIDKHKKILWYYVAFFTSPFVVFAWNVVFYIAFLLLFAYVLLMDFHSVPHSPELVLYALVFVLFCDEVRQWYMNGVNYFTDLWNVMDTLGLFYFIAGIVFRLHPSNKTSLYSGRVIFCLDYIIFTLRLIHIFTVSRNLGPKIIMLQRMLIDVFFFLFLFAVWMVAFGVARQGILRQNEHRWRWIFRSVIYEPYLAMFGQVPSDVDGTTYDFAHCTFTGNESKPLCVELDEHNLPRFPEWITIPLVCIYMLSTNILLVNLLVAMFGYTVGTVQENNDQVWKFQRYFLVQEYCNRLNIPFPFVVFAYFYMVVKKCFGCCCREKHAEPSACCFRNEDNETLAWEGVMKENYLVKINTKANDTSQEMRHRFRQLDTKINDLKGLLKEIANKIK

IC50 [nM] | inhibition at 0.2 µM [%] | Compound | % Inh @ 0.2 (μM) [%]
2 | 101 | Cc1c(N(Cc2ccc(Cl)c(F)c2)S(=O)(=O)c2ccc(C(=O)O)cc2)sc2ccccc12 [Compound 521, N-(3-Methyl-benzo[b]thiophen-2-yl)-N-(4-chloro-3-fluoro-benzyl)-4-carboxy-benzenesulfonamide] | –
4 | 101 | Cc1c(N(Cc2ccc(F)cc2C(F)(F)F)S(=O)(=O)c2ccc(C(=O)O)cc2)sc2ccccc12 [Compound 522, N-(3-Methyl-benzo[b]thiophen-2-yl)-N-(4-fluoro-2-trifluoromethyl-benzyl)-4-carboxy-benzenesulfonamide] | –
– | 101 | COc1ccc(CN(c2sc3ccccc3c2C)S(=O)(=O)c2ccc(C(=O)O)cc2)cc1OC [Compound 525, N-(3-Methyl-benzo[b]thiophen-2-yl)-N-(3,4-dimethoxy-benzyl)-4-carboxy-benzenesulfonamide] | –
1 | 102 | Cc1c(N(Cc2ccc(SC(F)(F)F)cc2)S(=O)(=O)c2ccc(C(=O)O)cc2)sc2ccccc12 [Compound 526, N-(3-Methyl-benzo[b]thiophen-2-yl)-N-(4-trifluoromethylsulfanyl-benzyl)-4-carboxy-benzenesulfonamide] | –
5 | 101 | Cc1c(N(Cc2ccc(F)c(C(F)(F)F)c2)S(=O)(=O)c2cc(C(=O)O)cs2)sc2ccccc12 [Compound 527, N-(3-Methyl-benzo[b]thiophen-2-yl)-N-(4-fluoro-3-trifluoromethyl-benzyl)-4-carboxy-thien-2-ylsulfonamide] | –
16 | 102 | Cc1cc(C(=O)O)sc1S(=O)(=O)N(Cc1ccc(F)c(C(F)(F)F)c1)c1sc2ccccc2c1C [Compound 528, N-(3-Methyl-benzo[b]thiophen-2-yl)-N-(4-fluoro-3-trifluoromethyl-benzyl)-(5-carboxy-3-methyl-thien-2-yl)-sulfonamide] | –
– | 35 | Cc1c(N(Cc2ccc(F)c(C(F)(F)F)c2)S(=O)(=O)c2ccc(C(=O)O)o2)sc2ccccc12 [Compound 529, N-(3-Methyl-benzo[b]thiophen-2-yl)-N-(4-fluoro-3-trifluoromethyl-benzyl)-5-carboxy-furan-2-yl-sulfonamide] | –
– | 54 | COC(=O)c1ccc(S(=O)(=O)N(CCCC(F)(F)F)c2sc3ccccc3c2Cl)cc1 [Compound 530, N-(3-Chloro-benzo[b]thiophen-2-yl)-N-(4,4,4-trifluoro-butyl)-4-carbomethoxy-benzenesulfonamide] | –
46 | 88 | COC(=O)c1ccc(S(=O)(=O)N(CCCCC(F)(F)F)c2sc3ccccc3c2Cl)cc1 [Compound 531, N-(3-Chloro-benzo[b]thiophen-2-yl)-N-(5,5,5-trifluoro-pentyl)-4-carbomethoxy-benzenesulfonamide] | –
– | 19 | CCCCN(c1cc2ccccc2s1)S(=O)(=O)NC [Compound 532, N-(Benzo[b]thiophen-2-yl)-N-(butyl)-N′-methyl-sulfamide] | –
32 | 102 | CNS(=O)(=O)N(Cc1ccc(F)c(C(F)(F)F)c1)c1sc2ccccc2c1C [Compound 533, N-(4-Fluoro-3-trifluoromethyl-benzyl)-N-(3-methylbenzo[b]thiophen-2-yl)-N′-methyl-sulfamide] | –
2 | – | CCS(=O)(=O)N(Cc1ccc(F)c(C(F)(F)F)c1)c1sc2ccccc2c1[C@H](C)O [Compound 534] | 102
1 | – | CCS(=O)(=O)N(Cc1ccc(F)c(C(F)(F)F)c1)c1sc2ccccc2c1[C@@H](C)O [Compound 535] | 102
77 | 89 | CCCCN(C1=C(N(C)C)c2ccccc2S1(=O)=O)S(=O)(=O)c1ccc(C(=O)O)cc1 [Compound 536, N-(Butyl)-N-(3-dimethylamino-1,1-dioxo-1H-benzo[b]thiophen-2-yl)-4-carboxy-benzenesulfonamide] | –
8.2 | 105 | O=C(O)c1ccc(S(=O)(=O)N(CCCC(F)(F)F)c2sc3ccccc3c2Cl)cc1 [Compound 537, N-(3-Chloro-benzo[b]thiophen-2-yl)-N-(4,4,4-trifluoro-butyl)-4-carboxy-benzenesulfonamide] | –
4.9 | 105 | O=C(O)c1ccc(S(=O)(=O)N(CCCCC(F)(F)F)c2sc3ccccc3c2Cl)cc1 [Compound 538, N-(3-Chloro-benzo[b]thiophen-2-yl)-N-(5,5,5-trifluoro-pentyl)-4-carboxy-benzenesulfonamide] | –
6.7 | 105 | CCCCN(c1sc2ccccc2c1C)S(=O)(=O)c1ccc(-c2nnn[nH]2)cc1 [Compound 539, N-(3-Methyl-benzo[b]thiophen-2-yl)-N-(butyl)-4-(1H-tetrazol-5-yl)-benzenesulfonamide] | –
10.8 | 105 | CCCCN(c1sc2ccccc2c1C)S(=O)(=O)c1ccc(-c2noc(=O)[nH]2)cc1 [Compound 541, N-(3-Methyl-benzo[b]thiophen-2-yl)-N-(butyl)-4-(5-oxo-4,5-dihydro-[1,2,4]oxadiazol-3-yl)-benzenesulfonamide] | –
2.3 | 105 | Cc1c(N(Cc2ccc(F)c(C(F)(F)F)c2)S(=O)(=O)c2ccc(-c3nnn[nH]3)cc2)sc2ccccc12 [Compound 542, N-(3-Methyl-benzo[b]thiophen-2-yl)-N-(4-fluoro-3-trifluoromethyl-benzyl)-4-(1H-tetrazol-5-yl)-benzenesulfonamide] | –
1.8 | 105 | Cc1c(N(Cc2ccc(F)c(C(F)(F)F)c2)S(=O)(=O)c2ccc(-c3noc(=O)[nH]3)cc2)sc2ccccc12 [Compound 544, N-(3-Methyl-benzo[b]thiophen-2-yl)-N-(4-fluoro-3-trifluoromethyl-benzyl)-4-(5-oxo-4,5-dihydro-[1,2,4]oxadiazol-3-yl)-benzenesulfonamide] | –
68.3 | 85.7 | Cc1c(N(Cc2ccc(F)c(C(F)(F)F)c2)S(=O)(=O)c2cccc(C#N)c2)sc2ccccc12 [Compound 546, N-(4-Fluoro-3-trifluoromethyl-benzyl)-N-(3-methyl-benzo[b]thiophen-2-yl)-3-cyano-benzenesulfonamide] | –
7.4 | 105 | CC(C)c1c(N(Cc2ccc(F)c(C(F)(F)F)c2)S(=O)(=O)c2ccccc2)sc2ccccc12 [Compound 547, N-(4-Fluoro-3-trifluoromethyl-benzyl)-N-(3-isopropyl-benzo[b]thiophen-2-yl)-benzenesulfonamide] | –
28.9 | 102 | CC(C)c1c(N(CCC2CC2)S(=O)(=O)c2ccccc2)sc2ccccc12 [Compound 548, N-(2-Cyclopropyl-ethyl)-N-(3-isopropyl-benzo[b]thiophen-2-yl)-benzenesulfonamide] | –
15.9 | 104 | Cc1c(N(CCC2CC2)S(=O)(=O)c2cccc(C#N)c2)sc2ccccc12 [Compound 549, N-(2-Cyclopropyl-ethyl)-N-(3-methyl-benzo[b]thiophen-2-yl)-3-cyano-benzenesulfonamide] | –
18.8 | 104 | Cc1c(N(CCC(F)(F)F)S(=O)(=O)c2cccc(C#N)c2)sc2ccccc12 [Compound 550, N-(3-Methyl-benzo[b]thiophen-2-yl)-N-(3,3,3-trifluoro-propyl)-3-cyano-benzenesulfonamide] | –
88.6 | 94.4 | Cc1c(N(CCCC(F)(F)F)S(=O)(=O)c2cccc(C#N)c2)sc2ccccc12 [Compound 551, N-(3-Methyl-benzo[b]thiophen-2-yl)-N-(4,4,4-trifluoro-butyl)-3-cyano-benzenesulfonamide] | –
25.1 | 101 | Cc1c(N(CCCCC(F)(F)F)S(=O)(=O)c2cccc(C#N)c2)sc2ccccc12 [Compound 552, N-(3-Methyl-benzo[b]thiophen-2-yl)-N-(5,5,5-trifluoro-pentyl)-3-cyano-benzenesulfonamide] | –
– | 38.7 | CCCCN(c1sc2ccccc2c1Cl)S(=O)(=O)NC [Compound 553, N-(3-Chloro-benzo[b]thiophen-2-yl)-N-(butyl)-N′-methyl-sulfamide] | –
– | 52.3 | CCCCN(c1sc2ccccc2c1Br)S(=O)(=O)NC [Compound 554, N-(3-Bromo-benzo[b]thiophen-2-yl)-N-(butyl)-N′-methyl-sulfamide] | –

Compound | IC50 [nM] | inhibition at 0.2 µM [%] | % Inh @ 0.2 (μM) [%]
Cc1c(N(Cc2ccc3c(c2)OCO3)S(=O)(=O)c2ccc(C(=O)O)cc2)sc2ccccc12 [Compound 523, N-(3-Methyl-benzo[b]thiophen-2-yl)-N—(C-benzo[1,3]dioxol-5-yl-methy)-4-carboxy-benzenesulfonamide] | 2 | – | 101
CCCCN(c1sc2ccccc2c1C)S(=O)(=O)c1ccc(C2=NOS(=O)N2)cc1 (stereo not drawn) [Compound 540, N-(3-Methyl-benzo[b]thiophen-2-yl)-N-(butyl)-4-(3H-[1,2,3,5]oxathiadiazole-2-oxide)-benzenesulfonamide] | 12.2 | – | 104.6
Cc1c(N(Cc2ccc(F)c(C(F)(F)F)c2)S(=O)(=O)c2ccc(C3=NOS(=O)N3)cc2)sc2ccccc12 (stereo not drawn) [Compound 543, N-(3-Methyl-benzo[b]thiophen-2-yl)-N-(4-fluoro-3-trifluoromethyl-benzyl)-4-(3H-[1,2,3,5]oxathiadiazole-2-oxide)-benzenesulfonamide] | 7.2 | – | 104.46
Cc1c(N(CCCCC(F)(F)F)S(=O)(=O)c2ccc(C(=O)[O-])cc2)sc2ccccc12.[Na+] [Compound 545, Sodium, N-(3-Methylbenzo[b]thiophen-2-yl)-N-(5,5,5-trifluoro-pentyl)-4-carboxy-benzenesulfonamide] | 1.9 | – | 104.78
